Like-named read-outs stand apart in the source and are kept apart here.
Tests used:
Type in all cases: cell-based
Rat dopaminergic neurons = assay: Protective effect after 6-OHDA injury on rat primary dopaminergic neurons survival (TH staining); conditions: p<0.0001
Protocol: As explained in Ding et al., J Neurochem., 2004, (89), administration of 6-Hydroxydopamine (6-OHDA), a neurotoxin, has been widely used to cause the selective degeneration of dopamine (DA) neurons in in vitro and in vivo models. These models are used as Parkinson's disease models, which is characterized by the progressive loss of DA neurons of the substantia nigra.
Rat dopaminergic neurons were cultured as described by Schinelli et al., J Neurochem., 1988, 50(6). The cells were seeded at a density of 40 000 cells/well in 96 well-plates (precoated with poly-D-lysine; Greiner, Ref: 655940, Batch: E20093UL) and were cultured at 37° C. in a humidified air (95%)/CO2 (5%) atmosphere. Half of the medium was changed every 2 days with fresh medium. In these conditions, after 5 days of culture, astrocytes are present in the culture and release growth factor allowing neurons differentiation. In this condition, 2 to 5% of neurons are dopaminergic neurons.
6-OHDA (Sigma, Ref: 162957, Batch MKCK5243) was reconstituted in define culture medium at 40 μM (stock solution). The control medium was prepared in the same conditions. After 7 days of culture, primary mesencephalic neurons were pre-treated for 1 hour with test compounds or reference compound (BDNF, 50 ng/mL) and then intoxicated with 6-OHDA at a final concentration of 20 μM for 2 days incubation in order to induce a neuronal cell death of about 50%+/−5%.
After 2 days of intoxication in presence or absence of test compounds, cells were fixed by a solution of 4% paraformaldehyde (Sigma, ref 6148, Batch: SZBE2390V) for 20 min at room temperature, the control conditions were fixed as well following the same procedure. The cells were then permeabilized and nonspecific sites were blocked with a solution of phosphate buffered saline (PBS; PanBiotech; ref: P04-36500, Batch: 7701020) containing 0.1% of saponin (Sigma; ref: S7900, Batch: BCBL8667V) and 1% FCS for 15 min at room temperature. Cells were incubated with a mouse monoclonal anti-Tyrosine Hydroxylase (TH, 1/10 000, Sigma; ref: T1299, Batch: 014M4835) antibody in a solution of PBS overnight at 4° C. Antibody against TH stained dopaminergic neurons. […] Nuclei of cells were labelled by a fluorescent marker (Hoechst, Sigma; ref: B1155, Batch: 046M4048V) in the same solution. For each condition, 20 pictures per well were taken using InCell Analyzer™ 2200 (GE Healthcare) with 20× magnification. Images of each culture well were taken in same condition. Analysis of cell bodies of TH positive neurons was performed using Developer software (GE healthcare). A total of 6 data per experimental condition were provided.

[1] = system: mouse hippocampal neuronal cell line HT22; assay: Neurotoxicity and excitotoxicity assay, HT22 cells + glutamate, erastin or RSL3, MTS cell viability; conditions: HT22 cells; for EC50: Mus musculus, HT-22, MTS
Protocol: (§1) The excitotoxicity model used was the mouse hippocampal neuronal HT22 cells treated with glutamate [Dixon et al., Cell, 2012, 149(5), 1060-1072]. Ferroptosis and oxidative stress are both associated in this glutamate-induced cell death [Chu et al., Neural Regen. Res., 2020, 15(3), 528-536]. Phenotypic screening was also carried out with additional cell death inducers, erastin and RSL3 ((1S,3R)-Ras-selective lethal), in HT22 and SH-SY5Y (human neuroblastoma cells). Erastin and RSL3 are well described molecules, used as chemical tools for the study of ferroptosis regulation and neuronal pathologies [Lewerenz et al., Front. Neurosci., 2018, 12: 214; Reichert et al., Int. J. Mol. Sci., 2020, 21, 8765].
(§2) Mouse hippocampal neuronal cell line (HT22, ATCC) and human neuroblastoma cell line (SH-SY5Y, ATCC) were grown in Dulbecco's Modified Eagle Medium (DMEM, Gibco) supplemented with 10% fetal bovine serum (FBS, Gibco) at 37° C. under 5% CO2 atmosphere. Neurotoxicity was induced by erastin or RSL3 and excitotoxicity was induced by glutamate. Cells were seeded in 96-well plates at 5,000 and 10,000 cells/well for HT22 and SH-SY5Y cell lines, respectively. Cells were treated with 0.5-1 μM Erastin (HT22 cells) or 10 μM Erastin (SH-SY5Y cells) or 5-10 mM glutamate (HT22 cells) or 0.5 μM RSL3 (HT22 cells) or 5 μM RSL3 (SH-SY5Y cells) for 24 h in presence of increasing concentrations of inhibitors. Cells treated with DMSO only were used as controls. Cell viability was assessed by MTS assay (CellTiter 96 AQueous One Solution Cell Proliferation assay, Promega).
(§3) In FIGS. 1, 2A and 2B, an inhibitor was added to HT22 (FIG. 1: compound 6) or SH-SY5Y (FIG. 2A: compound 6; FIG. 2B: compound 25) cells in the presence or not of cell death inducers (erastin, glutamate or RSL3). […] EC50 values for compounds 1-28 were calculated from dose-response curves using Graphpad Prism software.

[2] = system: human neuroblastoma cell line SH-SY5Y; assay: Neurotoxicity assay, SH-SY5Y cells + erastin or RSL3, MTS cell viability; conditions: SH-SY5Y cells; for EC50: Homo sapiens, MTS; for effect on cell viability without cell death inducers (potential cytotoxic effect of the molecule alone): doses tested maximum 50 or 100 μM; for concentration reaching almost total inhibition of induced cell death: in the presence of a ferroptosis inducer
Protocol: as §1, §2, §3

[3] = 0.5 μM RSL3, 24 h, read-out: EC50 HT22 RSL3
[4] = 0.5-1 μM Erastin, 24 h, read-out: EC50 HT22 Erastin
[5] = 5-10 mM glutamate, 24 h, read-out: EC50 HT22 Glutamate
[6] = 5 μM RSL3, 24 h, read-out: EC50 SH-SY5Y RSL3
[7] = 10 μM Erastin, 24 h, read-out: EC50 SH-SY5Y Erastin

| Molecule | cellular death of dopaminergic neurons (Rat dopaminergic neurons; 6-OHDA 20 μM alone, 2 days) | EC50 [1, 3] | EC50 [1, 4] | EC50 [1, 5] | EC50 [2, 6] | EC50 [2, 7] | effect on cell viability without cell death inducers (potential cytotoxic effect of the molecule alone) ([2]; 24 h) | concentration reaching almost total inhibition of induced cell death [2] | effect on cell viability without cell death inducers (potential cytotoxic effect of the molecule alone) ([1]; 24 h, doses tested maximum 50 or 100 μM) | concentration reaching almost total inhibition of induced cell death ([1]; in the presence of a ferroptosis inducer) | cellular death of dopaminergic neurons after 6-OHDA injury (Rat dopaminergic neurons; 50 ng/mL, 1 h pre-treatment, 6-OHDA 20 μM 2 days (6-OHDA alone 48%)) |
| --- | --- | --- | --- | --- | --- | --- | --- | --- | --- | --- | --- |
| NCCc1cc(O)c(O)cc1O [Compound 6-OHDA, 6-hydroxydopamine, reference compound] | 48% |  |  |  |  |  |  |  |  |  |  |
| CCOc1ccc(-c2cc3ccc[n+]([O-])c3[nH]2)cc1 [Compound 23, 2-(4-ethoxyphenyl)-1H-pyrrolo[2,3-b]pyridine-7-oxide] |  | 9.93 µM | > 25 µM | > 25 µM | 2.64 µM | 26.3 µM |  |  |  |  |  |
| CCOc1ccc(-c2cc3c(N(C)c4ccccc4)ccnc3[nH]2)cc1 [Compound 44, 2-(4-ethoxyphenyl)-N-methyl-N-phenyl-1H-pyrrolo[2,3-b]pyridin-4-amine] |  | 7.12 µM | 0.43 µM |  | 2.66 µM | 4.43 µM |  |  |  |  |  |
| CCOc1ccc(-c2cc3cccn(C(=O)OCc4ccccc4)c-3n2)cc1 [Compound 25, benzyl 2-(4-ethoxyphenyl)-7H-pyrrolo[2,3-b]pyridine-7-carboxylate] |  | 19 µM | 3.39 µM | 1.65 µM | 5.25 µM | 1.4 µM | no effect on cell viability | 10 µM |  |  |  |
| CCOc1ccc(-c2cc3ccc(-c4cn[nH]c4)nc3[nH]2)cc1 [Compound 41, 2-(4-ethoxyphenyl)-6-(1H-pyrazol-4-yl)-1H-pyrrolo[2,3-b]pyridine] |  | 6.5 µM |  |  | 2.21 µM | 3.68 µM |  |  |  |  |  |
| CCOc1ccc(-c2cc3ccc(OC(C)=O)nc3[nH]2)cc1 [Compound 38] |  | 2.56 µM | 6.78 µM |  | 0.2 µM | 1.61 µM |  |  |  |  |  |
| CCOc1ccc(-c2cc3c(-c4ccc(C(=O)c5ccccc5)cc4)ccn(Cc4ccccc4)c-3n2)cc1 [Compound 28, (4-(7-benzyl-2-(4-ethoxyphenyl)-7H-pyrrolo[2,3-b]pyridin-4-yl)phenyl)(phenyl)methanone] |  | 17.3 µM | 23.9 µM | 14.8 µM | 15.8 µM | 31.3 µM |  |  |  |  |  |
| CCOc1ccc(-c2cc3c(N4CCN(C)CC4)ccnc3[nH]2)cc1 [Compound 15, 2-(4-ethoxyphenyl)-4-(4-methylpiperazin-1-yl)-1H-pyrrolo[2,3-b]pyridine] |  | 7.19 µM | 1.54 µM | 0.5 µM |  | 2.45 µM |  |  |  |  |  |
| CCOc1ccc(-c2cc3ccc(C#N)nc3[nH]2)cc1 [Compound 35, 2-(4-ethoxyphenyl)-1H-pyrrolo[2,3-b]pyridine-6-carbonitrile] |  | 5.4 µM | 17 µM |  | 1.03 µM | 5.95 µM |  |  |  |  |  |
| CCOc1ccc(-c2cc3c(N4CCCCC4)ccnc3[nH]2)cc1 [Compound 13, 2-(4-ethoxyphenyl)-4-(piperidin-1-yl)-1H-pyrrolo[2,3-b]pyridine] |  | 44.1 µM | 3.62 µM | 0.92 µM | 9.25 µM | 1.11 µM |  |  |  |  |  |
| CCOc1ccc(-c2cc3ccncc3n2OC(=O)c2ccccc2)cc1 [Compound 6, 2-(4-ethoxyphenyl)-1H-pyrrolo[2,3-c]pyridin-1-yl benzoate] |  | 2.31 µM | 2.05 µM | 1.64 µM |  | 0.18 µM | no effect on cell viability | 1 µM | no effect on cell viability | 10 µM |  |
| BDNF: Brain Derived Neurotrophic Factor, reference compound at 50 ng/mL (protein, UniProt P23560 19-247, looked up) Neurotrophic factor BDNF …: APMKEANIRGQGGLAYPGVRTHGTLESVNGPKAGSRGLTSLADTFEHVIEELLDEDQKVRPNEENNKDADLYTSRVMLSSQVPLEPPLLFLLEEYKNYLDAANMSMRVRRHSDPARRGELSVCDSISEWVTAADKKTAVDMSGGTVTVLEKVPVSKGQLKQYFYETKCNPMGYTKEGCRGIDKRHWNSQCRTTQSYVRALTMDSKKRIGWRFIRIDTSCVCTLTIKRGR |  |  |  |  |  |  |  |  |  |  | 15% |

— patent publication US20240116923A1, “USE OF INDOLE, 6- AND 7-AZAINDOLE DERIVATIVES AS INHIBITORS OF FERROPTOSIS REGULATED CELL DEATH” (Seabelife, priority 2021, published 2024)
